Reference: patent US8575167B2, “Spiro compounds having stearoyl-CoA desaturase action” (Takeda Pharmaceutical Company Limited, priority 2007, dated 2013)

Molecular target: T1, SCD (Rattus norvegicus, UniProt P07308)
T1 construct: an enzyme reaction using rat liver microsome (20 μg) was performed for 15 min; from tissue; host or cells: rat liver microsome fraction
T1 sequence (P07308 1-358): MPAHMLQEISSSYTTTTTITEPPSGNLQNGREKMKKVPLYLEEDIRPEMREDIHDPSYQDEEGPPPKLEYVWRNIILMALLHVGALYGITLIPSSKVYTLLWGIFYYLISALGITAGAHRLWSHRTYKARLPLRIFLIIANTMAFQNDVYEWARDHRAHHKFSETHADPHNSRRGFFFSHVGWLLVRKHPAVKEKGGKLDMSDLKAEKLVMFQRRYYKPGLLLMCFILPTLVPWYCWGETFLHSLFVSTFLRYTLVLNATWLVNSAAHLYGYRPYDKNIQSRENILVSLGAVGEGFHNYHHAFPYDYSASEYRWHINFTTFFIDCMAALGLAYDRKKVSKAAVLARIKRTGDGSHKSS
Assay: Measurement of SCD inhibitory activity using microsome (TLC detection system)
Format: biochemical
Settings: rat liver microsome (20 μg), 15 min, [14C] stearoyl-CoA; test compound (10 mM) diluted to 3/1000 with 3× buffer, 10 μL in 30 μL reaction; read-out: SCD activity inhibitory rate (%)
Method: (Test Method: Measurement of SCD Inhibitory Activity Using Microsome (TLC Detection System))
A test compound (10 mM) diluted with DMSO in advance was secondarily diluted to 3/1000 with 3× buffer (300 mmol/L NaH2PO4 [pH 7.4], 450 mM KCl, 30 mM NaF, 9 mM MgCl2, 4.5 mM glutathione [reduced form], 0.3% BSA [fatty acid free, SIGMA]). The test compound (10 μL) diluted with the assay buffer was dispensed to a PP 96-deep well block, and a microsome fraction (10 μL) diluted with a microsome buffer was added thereto. The enzyme reaction was started by the addition of 10 μL of [^14C] stearoyl-CoA (American Radiolabeled Chemicals [ARC], Inc.) diluted to 10 μCi/mL with 9 mmol/L NADH. For evaluation of the compound, an enzyme reaction using rat liver microsome (20 μg) was performed for 15 min. The reaction was quenched by the addition of 10 μL of 2.5N NaOH, a plate seal was applied, and the reaction mixture was incubated overnight in a dry heater set to 65° C. to allow saponification. Solvent extraction of fatty acid was based on the Bligh&Dyer method (1). Formic acid:methanol:chloroform (1:6:3) (200 μL) was added, the state of single layer was maintained, the mixture was sufficiently stirred, and pure water (120 μL) was added to allow separation into two layers. The lower chloroform layer (10 μL) was spotted on reversed-phase TLC plate (RP-18, 1154230001, Merck Japan, Ltd.) and developed with acetonitrile:pure water:acetic:acid (95:4.5:0.5). The TLC plate was dried and transferred onto an Imaging Plate (Fuji Photo Film Co., Ltd.) for not less than 5 hr. For detection, BAS-5000 (Fuji Photo Film Co., Ltd) was used and the obtained spot images were converted to numerical values using Multi Gauge Ver2.3 (Fuji Photo Film Co., Ltd), based on which the SCD activity inhibitory rate (%) was determined.

Compound | inhibition at 10 µM [%]
Cc1nsc(-c2ccc(N3CCC4(C=Cc5ccccc54)CC3)nn2)n1 [Example 2, 1′-[6-(3-methyl-1,2,4-thiadiazol-5-yl)pyridazin-3-yl]spiro[indene-1,4′-piperidine]] | 99
Cc1nsc(-c2ccc(N3CCC4(CC3)Cc3ccccc3O4)nn2)n1 [Example 4, 1′-[6-(3-methyl-1,2,4-thiadiazol-5-yl)pyridazin-3-yl]-3H-spiro[1-benzofuran-2,4′-piperidine]] | 97
Cc1nsc(-c2ccc(N3CCC4(CC3)CC(=O)c3ccccc3O4)nn2)n1 [Example 5, 1′-[6-(3-methyl-1,2,4-thiadiazol-5-yl)pyridazin-3-yl]spiro[chromene-2,4′-piperidin]-4(3H)-one] | 100
Cc1nsc(-c2ccc(N3CCC4(CC3)NC(=O)c3ccccc3N4)nn2)n1 [Example 6, 1-[6-(3-methyl-1,2,4-thiadiazol-5-yl)pyridazin-3-yl]-1′H-spiro[piperidine-4,2′-quinazolin]-4′(3′H)-one] | 95
C1=CC2(CCN(c3ccc(-c4ncns4)nn3)CC2)c2ccccc21 [Example 11, 1′-[6-(1,2,4-thiadiazol-5-yl)pyridazin-3-yl]spiro[indene-1,4′-piperidine]] | 93
Cc1nsc(-c2ccc(N3CCC4(CC3)COc3ccccc34)nn2)n1 [Example 17, 1′-[6-(3-methyl-1,2,4-thiadiazol-5-yl)pyridazin-3-yl]spiro[1-benzofuran-3,4′-piperidine]] | 100
Cc1nsc(-c2ccc(N3CCC4(C=Cc5ccccc5O4)CC3)nn2)n1 [Example 20, 1′-[6-(3-methyl-1,2,4-thiadiazol-5-yl)pyridazin-3-yl]spiro[chromene-2,4′-piperidine]] | 98
Cc1nsc(-c2ccc(N3CCC4(CC3)CN(c3cccc(F)c3)C(=O)O4)nn2)n1 [Example 29, 3-(3-fluorophenyl)-8-[6-(3-methyl-1,2,4-thiadiazol-5-yl)pyridazin-3-yl]-1-oxa-3,8-diazaspiro[4.5]decan-2-one] | 99
Cc1nsc(-c2ccc(N3CCC4(CC3)NC(=O)c3ccccc3O4)nn2)n1 [Example 31, 1′-[6-(3-methyl-1,2,4-thiadiazol-5-yl)pyridazin-3-yl]spiro[1,3-benzoxazine-2,4′-piperidin]-4(3H)-one] | 92
Cc1nsc(-c2ccc(N3CCC4(CC3)CN(c3ccccc3)C(=O)CO4)nn2)n1 [Example 32, 9-[6-(3-methyl-1,2,4-thiadiazol-5-yl)pyridazin-3-yl]-4-phenyl-1-oxa-4,9-diazaspiro[5.5]undecan-3-one] | 94
Cc1noc(-c2ccc(N3CCC4(C3)OCc3ccccc34)nn2)n1 (stereo not drawn) [Example 43, 1′-[6-(3-methyl-1,2,4-oxadiazol-5-yl)pyridazin-3-yl]-3H-spiro[2-benzofuran-1,3′-pyrrolidine]] | 100
Cc1noc(-c2ccc(N3CCC4(CC3)CN(c3ccc(F)cc3)C(=O)O4)nn2)n1 [Example 47, 3-(4-fluorophenyl)-8-[6-(3-methyl-1,2,4-oxadiazol-5-yl)pyridazin-3-yl]-1-oxa-3,8-diazaspiro[4.5]decan-2-one] | 93
Cc1nsc(-c2ccc(N3CCC4(COc5ccccc54)C3)nn2)n1 (stereo not drawn) [Example 50, 1′-[6-(3-methyl-1,2,4-thiadiazol-5-yl)pyridazin-3-yl]spiro[1-benzofuran-3,3′-pyrrolidine]] | 99
Cc1noc(-c2ccc(N3CCC4(COc5ccccc54)C3)nn2)n1 (stereo not drawn) [Example 51, 1′-[6-(3-methyl-1,2,4-oxadiazol-5-yl)pyridazin-3-yl]spiro[1-benzofuran-3,3′-pyrrolidine]] | 97
O=C(CNC(=O)c1ccc(N2CCC3(C=Cc4ccccc43)CC2)nn1)c1ccccc1 [Example 55, N-(2-oxo-2-phenylethyl)-6-(1′H-spiro[indene-1,4′-piperidin]-1′-yl)pyridazine-3-carboxamide] | 99
